In ChEMBL document CHEMBL5046244, “Targeted Covalent Inhibition of Small CTD Phosphatase 1 to Promote the Degradation of the REST Transcription Factor in Human Cells” (J Med Chem, 2022):
Activity calls are given as the source filed them. The calls are words filed in the database; no cut-off is given here.

Target: T1, Carboxy-terminal domain RNA polymerase II polypeptide A small phosphatase 1 (Homo sapiens) (UniProt Q9GZU7)
T1 sequence (whole entry): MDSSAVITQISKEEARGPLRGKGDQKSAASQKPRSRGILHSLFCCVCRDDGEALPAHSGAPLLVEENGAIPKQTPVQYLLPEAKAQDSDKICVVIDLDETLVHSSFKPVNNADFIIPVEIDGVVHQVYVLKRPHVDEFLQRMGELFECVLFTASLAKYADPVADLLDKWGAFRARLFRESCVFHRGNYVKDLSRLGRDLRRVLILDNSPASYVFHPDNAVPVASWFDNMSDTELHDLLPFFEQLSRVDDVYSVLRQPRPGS
Test: Binding affinity to wild type human SCP1 assessed as covalent bond formation at 50 uM incubated for 18 hrs

Activity: inactive
Structure (SMILES): C#CCCC(=O)NCCCNC(=O)C1=Cc2ccccc2S1(=O)=O
